Series [1] can be described thus: Chemical stability of the compound assessed as half life in phosphate buffer at pH 7. Format: physicochemical.
In the next series the test system is Candida albicans. The series is described as follows: Fungicidal activity against Candida albicans ATCC 10231 after 1 hr by CLSI M26-A method. The settings on record: ATCC 10231, 1 h. In kind it is functional.
The nature of series [2]: Chemical stability of the compound assessed as half life in acetate buffer at pH 4. Format: physicochemical.
In a further series the test system is Escherichia coli. The series can be described thus: Bactericidal activity against Escherichia coli ATCC 25922 after 1 hr by CLSI M26-A method. In kind it is functional. The settings on record: ATCC 25922, 1 h.
Another series relates to Staphylococcus aureus. The series is described as follows: Bactericidal activity against Staphylococcus aureus ATCC 29213 after 1 hr by CLSI M26-A method. Format: functional. To be noted: ATCC 29213, 1 h.
Series [3] can be described thus: Chemical stability of the compound assessed as half life in 0.6% borate buffer at pH 7. Format: physicochemical.

Values after ≈ are worked out from the molar mass of the structure shown. A value given as a limit tells only on which side of the number the result lay.

Take `CC(C)(CC[N+](C)(C)C)N(Cl)Cl.[Cl-]`: the half-life in series [1] was above 210 days; in series [2], above 281 days. The compound further came in with an MFC in the series with Candida albicans of 64 µg/mL. In addition, the MBC against Escherichia coli and against Staphylococcus aureus was 2 µg/mL throughout.
As to `CC(C)(CCC[N+](C)(C)C)N(Cl)Cl.[Cl-]`, the half-life is 56 days in series [1] and 80 days in series [2]. In the series with Candida albicans, the MFC is 256 µg/mL. The MBC against Escherichia coli turned out to be 8 µg/mL; against Staphylococcus aureus it was 2 µg/mL.
`CC(C)(CCS(=O)(=O)CCS(=O)(=O)O)N(Cl)Cl`: the half-life in series [1] and in series [2] was above 342 days each time. For the same compound, in the series with Candida albicans, the MFC came out at 16 µg/mL (≈ 48.7 µM). The minimum bactericidal concentration (MBC) was determined as 8 µg/mL (≈ 24.4 µM) in the series on Escherichia coli and 2 µg/mL (≈ 6.09 µM) in the series on Staphylococcus aureus.
Turning to `CC(C)(CCS(=O)(=O)CCCS(=O)(=O)O)N(Cl)Cl`, the half-life in series [1] was 85 days; in series [2], above 112 days. For the same compound, the MFC in the series on Candida albicans came out at 1020 µg/mL (≈ 2990 µM). Besides, the MBC with Escherichia coli and in the series with Staphylococcus aureus was 2 µg/mL (≈ 5.84 µM) each time.
As for `CC(C)(CCS(=O)(=O)CCS(=O)(=O)CCS(=O)(=O)O)N(Cl)Cl`, the figures for the half-life in series [3] and in series [2] were 14 days and above 73 days, respectively. The compound also yielded an MFC with Candida albicans of 32 µg/mL (≈ 76.1 µM). For the same compound, the MBC against Escherichia coli is 2 µg/mL (≈ 4.76 µM); against Staphylococcus aureus, 4 µg/mL (≈ 9.52 µM).
The compound `CC(C)(CCS(=O)(=O)CC[N+](C)(C)C)N(Cl)Cl.[Cl-]` gave an MFC against Candida albicans of 32 µg/mL. In addition, the half-life in series [2] is 6 days. In addition, the results for the MBC in the series on Escherichia coli and against Staphylococcus aureus were 8 µg/mL and 2 µg/mL, respectively.
In the case of `CC(C)(CCS(=O)(=O)CCC[N+](C)(C)C)N(Cl)Cl.[Cl-]`, the half-life was 70 days in series [3] and above 160 days in series [2]. This compound also registered a minimum fungicidal concentration (MFC) against Candida albicans of 32 µg/mL. For the same compound, the MBC in the series with Escherichia coli is 8 µg/mL; in the series with Staphylococcus aureus it was 2 µg/mL.
The like results for `CC(C)(CCS(=O)(=O)CCCCCCCCS(=O)(=O)O)N(Cl)Cl` were, in that order, 70 days, 182 days, 8 µg/mL (≈ 19.4 µM), 2 µg/mL (≈ 4.85 µM) and 4 µg/mL (≈ 9.7 µM).
`CC(C)(CCS(=O)(=O)CCCCCCCC[N+](C)(C)C)N(Cl)Cl.[Cl-]`: the results for the half-life in series [1] and in series [2] were 74 days and 127 days, respectively. This compound came in with a minimum fungicidal concentration (MFC) with Candida albicans of 32 µg/mL. The MBC in the series on Escherichia coli and against Staphylococcus aureus was 8 µg/mL throughout.
As for `CC(C)(CCCS(=O)(=O)CCS(=O)(=O)O)N(Cl)Cl`, the half-life in series [3] and in series [2] was 45 days in each case. The compound also yielded an MFC in the series on Candida albicans of 128 µg/mL (≈ 374 µM). Also, the MBC in the series on Escherichia coli was determined as 8 µg/mL (≈ 23.4 µM); in the series on Staphylococcus aureus it was 2 µg/mL (≈ 5.84 µM).
`CC(C)(CS(=O)(=O)[O-])N(Cl)Cl.[Na+]`: the half-life in series [1] is above 300 days; in series [2], above 730 days. Further, the MFC in the series with Candida albicans was 32 µg/mL. Besides, the MBC with Escherichia coli and against Staphylococcus aureus was 2 µg/mL in each case.
As to `CC(C)(CS(=O)(=O)CCS(=O)(=O)O)N(Cl)Cl`, the half-life in series [1] was 1 days; in series [2] it was above 93 days. This compound also displayed an MFC in the series with Candida albicans of 64 µg/mL (≈ 204 µM). The MBC in the series with Escherichia coli worked out at 4 µg/mL (≈ 12.7 µM); with Staphylococcus aureus it was 8 µg/mL (≈ 25.5 µM).
Consider `CC(C)(C[N+](C)(C)C)N(Cl)Cl.[Cl-]`, for which the results for the half-life in series [1] and in series [2] were above 396 days and above 325 days, respectively. In the series on Candida albicans, the MFC was 128 µg/mL. In addition, the MBC in the series with Escherichia coli came to 16 µg/mL; against Staphylococcus aureus, 8 µg/mL.

(Values after ChEMBL document CHEMBL1777687, “Structure stability/activity relationships of sulfone stabilized N,N-dichloroamines” (Bioorg Med Chem Lett, 2011).)
